“And” between values parts separate entries of the source, which are not always exact repeats. Equal entries are not always repeated. Structures can show the parent of a compound that is named as a salt.
How the values were obtained:
[1] = tested on: antibody secreting cells in the spleen; assay: Kennedy Plaque Assay (humoral immune system depressed by 6-mercaptopurine; number of plaques); type: in vivo; conditions: ip; 60 mg/Kg of 6 MP plus 6.25 mg/Kg (i.p.) of compound; read-out: Percent Restoration (+) or Suppression (-)
Protocol: In this assay, in which the in vitro model used was the Kennedy modification of the Jerne (or plaque) technique (J. C. Kennedy et al, Immunol., 20, p. 253 (1971)), the animal's humoral immune system is depressed artificially by the known immunosuppressant drug, 6-mercaptopurine (6-MP), and then the ability of a drug to either suppress it further or restore it towards normal is evaluated. The change in the number of plaques, which is a direct correlate of the change in the number of antibody secreting cells in the spleen, is used to measure this effect. For example, the compound of Example 11 results in greater than 100% restoration of the number of plaques and thus causes an immunoenhancement of the humoral system. In contrast, the compound of Example 28 results in about 24% further suppression of the number of plaques and thus behaves as an immunosuppressant.
of 6 MP plus 6.25 mg/Kg (i.p.)
^1 without 6MP treatment
^2 percent change from control (i.e., without 6MP)

[2] = tested on: carrageenan-induced paw edemas; assay: Anti-inflammatory assay, carrageenan-induced paw edema; type: in vivo, Male, Sprague-Dawley rats
Protocol: The anti-inflammatory properties of various compounds of this invention were determined by carrageenan-induced paw edemas of test rats. Male, Sprague-Dawley rats (Blue Spruce Farm) were ordered at 125-140 g, housed for one week, and allowed food and water ad libitum. At the time of the experiments, only rats weighing 160-200 g were used.
All compounds were dissolved or suspended in a 0.5% water solution of Methocel and orally administered to groups of six rats each. Control rats received Methocel only. Two hours later (unless otherwise stated), paw edema was induced by subcutaneous injection into the plantar surface of the right hind paw of 0.1 ml of a 1.0% homogenized suspension of carrageenan.
Immediately, the volume of the paw was measured by immersing it in mercury to above the lateral mateolus. The mercury in a glass cylinder 25 mm in diameter and 60 mm deep was connected at the bottom on the cylinder by a column of water to a Statham transducer (model P23BB), range 0-5 cm of mercury pressure. The volume was recorded electronically on a Beckman recorder, R511. Three hours later, the inflamed paw volume was measured again, and the change in volume was recorded for each group. The percent inhibition of edema was calculated using the control group paw volume as 100% edema, i.e., as (the change in edema in the control group less the change in edema in the test group) times 100 divided by the change in edema in the control group.

mouse hepatitis virus = assay: Antiviral assay - hepatitis in mice; type: in vivo; conditions: once daily for 3 days; for Mean Liver Score: day 4, 0 (normal) to 4 (extreme discoloration); for Percent Survival: day 21
Protocol: Female mice weighing approximately 21-24 grams were inoculated with 0.1 ml of a mouse liver suspension containing mouse hepatitis virus, which liver suspension is at a dilution of 10^-5.5. Starting twenty-four hours post-virus inoculation, the animals were intraperitoneally ("i.p.") or orally administered the test compound(s) once daily for 3 days. On day 4, one third to one half of each group of mice were sacrificed and their liver removed for examination. Each liver was scored and assigned a number from 0 (normal liver) to 4 (extreme discoloration). The mean liver score per group was computed. The number of animals surviving until termination of the study (day 21) was also recorded. Anti-hepatitis activity is evidenced by increased survivor numbers and improved liver scores.

Row | SMILES | change in vivo at 6.25 mg/kg [1] | Percent Inhibition of carrageenan induced edema ([2]; 100 mg/Kg p.o., dosed two hours before carrageenan, hydrochloride) | Percent Inhibition of carrageenan induced edema ([2]; 50 mg/Kg p.o., 20 hrs. predosed) | Percent Inhibition of carrageenan induced edema ([2]; 50 mg/Kg p.o., dosed two hours before carrageenan) | Mean Liver Score (mouse hepatitis virus; 6.25 mg/Kg i.p., control 2.6) | Percent Survival (mouse hepatitis virus; 6.25 mg/Kg i.p., control 5%) | Mean Liver Score (mouse hepatitis virus; 12.5 mg/Kg i.p., control 2.6 (Examples 11, 16, 23), 3.4 (25, 26)) | Percent Survival (mouse hepatitis virus; 12.5 mg/Kg i.p., control 5% (Examples 11, 16, 23), 6% (25, 26)) | Mean Liver Score (mouse hepatitis virus; 25 mg/Kg i.p., control 2.6 (Examples 11, 23), 3.4 (25, 26)) | Percent Survival (mouse hepatitis virus; 25 mg/Kg i.p., control 5% (Examples 11, 23), 6% (25, 26))
1 | Clc1cccc(Cl)c1SC1CCCN2CC(c3ccccc3)N=C12 (centres unmarked) [Example 20, 2,3,5,6,7,8-Hexahydro-2-phenyl-8-(2,6-dichlorophenylthio)imidazo[1,2-a]pyridine hydrochloride] | -49% | 33.3% and 39.6% | – | – | – | – | – | – | – | –
2 | COC1(OC)CCCN2CC(c3ccccc3)N=C21 (centres unmarked) [Example 23, 2,3,5,6,7,8-Hexahydro-2-phenyl-8,8-dimethoxyimidazo [1,2-a]pyridine hydrochloride] | 64% | – | 32.1% | -3.2% | 1.7 | 40% | 1.0 | 70% | 1.3 | 50%

— patent US4560758A, “Process for preparing pyrrolo[1,2-a]imidazoles and imidazo[1,2-a]pyridines” (Pennwalt Corporation, priority 1984, dated 1985)
